Experimental data taken from article PMC10897015, “Investigation of anti-nociceptive, anti-inflammatory potential and ADMET studies of pure compounds isolated from Isodon rugosus Wall. ex Benth” (Frontiers in Pharmacology, 2024).
“And” between values parts separate entries of the source, which are not always exact repeats. Equal entries are not always repeated. Where two headings read alike, the source gives them in different places.

Legend:
COX-2 = molecular target: T1, COX-2 (Homo sapiens, UniProt P35354); assay: Cyclooxygenase-2 inhibitory activity; format: biochemical; conditions: for % inhibition, COX-2 (mean ± SEM) / Percent Inhibition (COX-2), single replicates: listed as Comp 2; for Percent Inhibition (COX-2), single replicates: replicates 1-3; for IC50: COX-2
T1 sequence (P35354 18-604): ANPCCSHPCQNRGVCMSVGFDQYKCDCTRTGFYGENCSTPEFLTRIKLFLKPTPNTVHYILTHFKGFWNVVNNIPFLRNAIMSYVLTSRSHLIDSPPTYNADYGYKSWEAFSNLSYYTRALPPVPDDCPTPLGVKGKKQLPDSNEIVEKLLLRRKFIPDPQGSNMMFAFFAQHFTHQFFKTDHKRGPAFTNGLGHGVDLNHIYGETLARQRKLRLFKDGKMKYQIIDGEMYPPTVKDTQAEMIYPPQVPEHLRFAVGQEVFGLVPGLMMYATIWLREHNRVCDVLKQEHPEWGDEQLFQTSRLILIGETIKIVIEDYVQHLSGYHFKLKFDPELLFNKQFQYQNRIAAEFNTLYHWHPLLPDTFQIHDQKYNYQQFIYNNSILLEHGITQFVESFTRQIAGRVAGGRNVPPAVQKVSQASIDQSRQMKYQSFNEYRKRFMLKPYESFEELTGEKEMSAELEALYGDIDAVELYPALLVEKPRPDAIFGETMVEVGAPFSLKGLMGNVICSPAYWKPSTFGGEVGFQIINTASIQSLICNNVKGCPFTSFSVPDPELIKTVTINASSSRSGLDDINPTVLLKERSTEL
Experimental: An enzyme solution with a concentration of 300 U/ml was prepared and activated using ice for 5 min with a 50 µL cofactor solution containing glutathione (0.9 mM), TMPD (N,N,N,N_tetramethyl-p-phenylenediaminedihydrochloride) (0.24 mM), and hematin (1 mM) in Tris buffer (0.1 M) with pH 8. The enzyme solution (60 µL) and test samples (20 µL) with various concentrations were incubated at room temperature for 5 minutes. Celecoxib was used as a positive control in the current assay. The absorbance of the samples was measured at 570 nm after the samples had been incubated for 5 min. Arachidonic acid (30 mM, 20 µL) was added to initiate the reaction. The percent inhibition was calculated from the absorbance value per unit time.

5-LOX = molecular target: T2, 5-LOX (Glycine max, UniProt P08170); assay: Lipoxygenase (5-LOX) inhibitory activity; format: biochemical
T2 sequence (P08170 1-839): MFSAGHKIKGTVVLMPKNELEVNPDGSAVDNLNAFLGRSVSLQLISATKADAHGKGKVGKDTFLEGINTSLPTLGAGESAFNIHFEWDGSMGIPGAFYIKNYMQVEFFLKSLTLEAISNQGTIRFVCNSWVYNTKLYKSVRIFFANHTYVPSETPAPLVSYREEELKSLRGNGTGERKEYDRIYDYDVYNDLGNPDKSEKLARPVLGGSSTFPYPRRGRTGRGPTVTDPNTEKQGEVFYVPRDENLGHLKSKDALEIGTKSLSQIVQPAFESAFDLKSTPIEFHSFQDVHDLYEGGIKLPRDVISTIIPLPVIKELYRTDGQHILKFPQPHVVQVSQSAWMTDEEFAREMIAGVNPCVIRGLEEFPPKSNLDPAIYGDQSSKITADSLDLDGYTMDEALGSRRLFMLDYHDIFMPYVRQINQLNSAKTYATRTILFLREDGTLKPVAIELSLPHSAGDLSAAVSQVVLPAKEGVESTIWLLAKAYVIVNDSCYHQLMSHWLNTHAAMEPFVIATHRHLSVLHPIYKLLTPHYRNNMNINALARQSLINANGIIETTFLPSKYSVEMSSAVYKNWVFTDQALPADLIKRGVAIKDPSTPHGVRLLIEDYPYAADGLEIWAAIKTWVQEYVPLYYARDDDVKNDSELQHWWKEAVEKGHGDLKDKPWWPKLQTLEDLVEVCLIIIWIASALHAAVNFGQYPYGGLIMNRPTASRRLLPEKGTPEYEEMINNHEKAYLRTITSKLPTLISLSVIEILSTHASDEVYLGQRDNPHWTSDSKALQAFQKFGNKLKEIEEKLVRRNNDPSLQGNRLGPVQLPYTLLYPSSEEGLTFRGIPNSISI
Experimental: The enzyme solution with a concentration of 10,000 U/ml was prepared. […] A solution (80 mM) of linoleic acid (substrate) was made. Likewise, a 50 mM phosphate buffer solution with a pH of 6.3 was prepared. The substrate, enzyme, and buffer were combined in equal proportions, each in a 2 ml volume. […] The inhibition percentage was determined by comparing the absorbance of the test samples with that of the positive control.

Swiss albino mice [1] = assay: Hot plate test with opioid receptor involvement; format: in vivo; conditions: for Reaction time on hot plate, individual values: single animals; for Reaction time on the hot plate: compounds 50 mg/kg, Mor 5 mg/kg, Nal 1 mg/kg
Swiss albino mice [2] = assay: Formalin test with opioid receptor involvement; format: in vivo; conditions: for formalin induced pain, licking time, individual values: single animals; for Total time spent in licking 0–5 min: first phase; for Total time spent in licking 0–5 min / Total time spent in licking 15–30 min: compounds 50 mg/kg, Mor 5 mg/kg, Nal 1 mg/kg; for Total time spent in licking 15–30 min: second phase
Experimental: An anti-nociceptive assessment was performed on Swiss albino mice of both sexes, sourced from the National Institute of Health, Islamabad, Pakistan. […] Mice of either sex were divided into different groups, with five mice in each group. […]
The analgesic activity of I. rugosus was assessed through a formalin-induced licking test. The test samples were administered orally at specified doses.

Compound: O=C(CCc1ccc(O)cc1)c1c(O)cc(O)cc1O [Compound 2, 2-4-4-6-tetrahydroxy-dihydrochalcone]
- % inhibition, COX-2 (mean ± SEM) (COX-2; 62.5 µg/ml): 31.8267%
- inhibition at 62.5 µg/mL (COX-2; 62.5 µg/ml, read-out: % inhibition, COX-2 (mean ± SEM)): 31.9 ± 0.92%
- % inhibition, COX-2 (mean ± SEM) (COX-2; 250 µg/ml): 41.1767%
- inhibition at 250 µg/mL (COX-2; 250 µg/ml, read-out: % inhibition, COX-2 (mean ± SEM)): 41.1 ± 0.24%
- % inhibition, COX-2 (mean ± SEM) (COX-2; 500 µg/ml): 45.1433%
- inhibition at 500 µg/mL (COX-2; 500 µg/ml, read-out: % inhibition, COX-2 (mean ± SEM)): 45.1 ± 0.22%
- % inhibition, COX-2 (mean ± SEM) (COX-2; 1000 µg/ml): 52.9867%
- inhibition at 1000 µg/mL (COX-2; 1000 µg/ml, read-out: % inhibition, COX-2 (mean ± SEM)): 53 ± 0.79%
- Percent Inhibition (COX-2), single replicates (COX-2; 62.5): 31.46% and 31.74% and 32.28%
- Percent Inhibition (COX-2), single replicates (COX-2; 125): 37.07% and 37.62% and 35.7%
- Percent Inhibition (COX-2), single replicates (COX-2; 250): 40.49% and 41.18% and 41.86%
- Percent Inhibition (COX-2), single replicates (COX-2; 500): 45.69% and 44.6% and 45.14%
- Percent Inhibition (COX-2), single replicates (COX-2; 1000): 50.07% and 54.17% and 54.72%
- IC50 (COX-2; read-out: IC50): 2880 µM
- IC50 (COX-2; read-out: IC50 (µg/ml) (converted)): 2880 µM
- inhibition at 62.5 µg/mL (5-LOX; read-out: % inhibition 5-LOX (mean ± SEM), 62.5 µg/ml): 21.1 ± 0.9%
- inhibition at 250 µg/mL (5-LOX; read-out: % inhibition 5-LOX (mean ± SEM), 250 µg/ml): 31.1 ± 0.2%
- inhibition at 500 µg/mL (5-LOX; read-out: % inhibition 5-LOX (mean ± SEM), 500 µg/ml): 36.7 ± 0.67%
- inhibition at 1000 µg/mL (5-LOX; read-out: % inhibition 5-LOX (mean ± SEM), 1000 µg/ml): 41.43 ± 0.38%
- Reaction time on hot plate, individual values (Swiss albino mice [1]; at 15, listed as Comp-2): 3.02 and 3.9 and 4.6
- Reaction time on hot plate, individual values (Swiss albino mice [1]; at 30, listed as Comp-2): 4.1 and 4.17 and 5.3
- Reaction time on hot plate, individual values (Swiss albino mice [1]; at 45, listed as Comp-2): 3.12 and 2.58 and 4.1
- Reaction time on hot plate, individual values (Swiss albino mice [1]; at 60, listed as Comp-2): 2.3
- Reaction time on hot plate, individual values (Swiss albino mice [1]; at 90, listed as Comp-2): 2.06 and 2.49 and 3.99
- Reaction time on the hot plate (Swiss albino mice [1]; at 15 min): 03.84 ± 0.03 s
- Reaction time on the hot plate (Swiss albino mice [1]; at 15 min, listed as Comp-2): 3.84 s
- Reaction time on the hot plate (Swiss albino mice [1]; at 30 min): 04.52 ± 0.09 s
- Reaction time on the hot plate (Swiss albino mice [1]; at 30 min, listed as Comp-2): 4.523 s
- Reaction time on the hot plate (Swiss albino mice [1]; at 45 min): 3.27 ± 0.48 s
- Reaction time on the hot plate (Swiss albino mice [1]; at 45 min, listed as Comp-2): 3.267 s
- Reaction time on the hot plate (Swiss albino mice [1]; at 60 min): 3.18 ± 0.34 s
- Reaction time on the hot plate (Swiss albino mice [1]; at 60 min, listed as Comp-2): 3.183 s
- Reaction time on the hot plate (Swiss albino mice [1]; at 90 min): 2.85 ± 0.29 s
- Reaction time on the hot plate (Swiss albino mice [1]; at 90 min, listed as Comp-2): 2.847 s
- formalin induced pain, licking time, individual values (Swiss albino mice [2]; 0-5 minutes, listed as Comp 2): 51.46 and 50.12 and 53.09
- formalin induced pain, licking time, individual values (Swiss albino mice [2]; 15-30 minutes, listed as Comp 2): 66.34 and 68.12 and 69.02
- Total time spent in licking 0–5 min (Swiss albino mice [2]): 51.55 ± 0.99 s
- Total time spent in licking 0–5 min (Swiss albino mice [2]; listed as Comp 2): 51.5567 s
- Total time spent in licking 15–30 min (Swiss albino mice [2]): 67.83 ± 0.57 s
- Total time spent in licking 15–30 min (Swiss albino mice [2]; listed as Comp 2): 67.8267 s
